Tests used:
[1] = Solubility of Freeform Form A in solvents; type: physicochemical
Source text: Freeform Form A was a gum material. The material had the solubility shown below:

[2] = molecular target: sodium-dependent serotonin transporter (SERT) (Homo sapiens, UniProt P31645); details: reported for naturally occurring material from Sceletium tortuosum; cited from earlier work
sodium-dependent serotonin transporter (SERT), sequence (P31645 whole entry, species assumed): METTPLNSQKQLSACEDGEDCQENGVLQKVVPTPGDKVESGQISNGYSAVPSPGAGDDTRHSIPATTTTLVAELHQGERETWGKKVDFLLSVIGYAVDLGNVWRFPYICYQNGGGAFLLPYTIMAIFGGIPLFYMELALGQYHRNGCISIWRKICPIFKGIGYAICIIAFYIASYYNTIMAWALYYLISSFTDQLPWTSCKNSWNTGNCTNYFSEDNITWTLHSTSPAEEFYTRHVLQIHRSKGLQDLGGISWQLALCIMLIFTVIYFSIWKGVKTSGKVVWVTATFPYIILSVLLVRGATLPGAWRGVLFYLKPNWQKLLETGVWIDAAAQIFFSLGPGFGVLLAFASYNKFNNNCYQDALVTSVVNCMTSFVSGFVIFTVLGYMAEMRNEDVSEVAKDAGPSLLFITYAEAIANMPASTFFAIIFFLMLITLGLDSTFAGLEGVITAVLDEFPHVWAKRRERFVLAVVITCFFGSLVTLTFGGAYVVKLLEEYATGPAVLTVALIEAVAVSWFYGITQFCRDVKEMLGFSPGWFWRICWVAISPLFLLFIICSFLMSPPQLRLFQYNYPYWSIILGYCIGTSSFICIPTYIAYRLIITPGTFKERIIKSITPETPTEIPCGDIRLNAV

## COc1ccc([C@@]23CCC(=O)C[C@@H]2N(C)CC3)cc1OC [Freeform Form A, (3aS,7aS)-3a-(3,4-dimethoxyphenyl)-1-methyl-2,3,4,5,7,7a-hexahydroindol-6-one]
[1]; solvent 1,4-Dioxane
  Solubility (mg/mL): S > 40.0 mg/mL
[1]; solvent 2-MeTHF
  Solubility (mg/mL): S > 40.0 mg/mL
[1]; solvent ACN
  Solubility (mg/mL): S > 44.0 mg/mL
[1]; solvent Acetone
  Solubility (mg/mL): S > 40.0 mg/mL
[1]; solvent CPME
  Solubility (mg/mL): S > 40.0 mg/mL
[1]; solvent DCM
  Solubility (mg/mL): S > 42.0 mg/mL
[1]; solvent EtOH
  Solubility (mg/mL): S > 42.0 mg/mL
[1]; solvent H2O
  Solubility (mg/mL): S > 42.0 mg/mL
[1]; solvent IPA
  Solubility (mg/mL): S > 38.0 mg/mL
[1]; solvent IPAc
  Solubility (mg/mL): S > 36.0 mg/mL
[1]; solvent MIBK
  Solubility (mg/mL): S > 38.0 mg/mL
[1]; solvent MTBE
  Solubility (mg/mL): S > 40.0 mg/mL
[1]; solvent MeOH
  Solubility (mg/mL): S > 36.0 mg/mL
[1]; solvent THF
  Solubility (mg/mL): S > 44.0 mg/mL

## COc1ccc([C@@]23CCC(=O)C[C@@H]2N(C)CC3)cc1OC [Compound 1, (3aS,7aS)-3a-(3,4-dimethoxyphenyl)-1-methyl-2,3,4,5,7,7a-hexahydroindol-6-one]
[2]
  serotonin (5-HT) uptake inhibition, in words: serotonin (5-HT) uptake inhibitory activity

From patent US20260049055A1, “SOLID FORMS OF […] […] USES THEREOF” (Sensorium Therapeutics, Inc., priority 2022, published 2026)
